PubChem BioAssay (NCI)
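1) Cells in 96-well plates. 2) Compound, 48 h, 5 concentrations. 3) Linear interpolation between surrounding doses. 4) Unreached endpoint = highest concentration. The concentration for full growth arrest is given as TGI.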

Columns and labels:
Assay in all cases: growth of human tumour cells (NCI), 48 h
[1] = test system: A498 renal
[2] = test system: A549 NSCLC
[3] = test system: CCRF-CEM leukemia
[4] = test system: COLO 205 colon
[5] = test system: EKVX NSCLC
[6] = test system: HCC-2998 colon
[7] = test system: HCT-15 colon
[8] = test system: HL-60(TB) leukemia
[9] = test system: HOP-62 NSCLC
[10] = test system: KM12 colon
[11] = test system: LOX IMVI melanoma
[12] = test system: M14 melanoma
[13] = test system: MDA-MB-231 breast
[14] = test system: MDA-N
[15] = test system: SF-295 CNS
[16] = test system: SK-MEL-5 melanoma
[17] = test system: SN12C renal
[18] = test system: CAKI-1 renal
[19] = test system: BT-549 breast

Compound | TGI [1] | TGI [2] | TGI [3] | TGI [4] | TGI [5] | TGI [6] | TGI [7] | TGI [8] | TGI [9] | TGI [10] | TGI [11] | TGI [12] | TGI [13] | TGI [14] | TGI [15] | TGI [16] | TGI [17] | TGI [18] | TGI [19]
Cc1ccc2c(c1)CC1(Cc3ccccc3C1=O)C2=O (stereo unspecified) | > 100 µM | > 100 µM | > 100 µM | > 100 µM | > 100 µM | > 100 µM | > 100 µM | > 100 µM | > 100 µM | > 100 µM | > 100 µM | > 100 µM | > 100 µM | > 100 µM | > 100 µM | > 100 µM | > 100 µM | – | –
CSc1cc(Cl)c(C)cc1S(=O)(=O)NC(=O)NNc1cccc(C(F)(F)F)n1 | > 100 µM | > 100 µM | > 100 µM | > 100 µM | > 100 µM | > 100 µM | > 100 µM | – | > 100 µM | > 100 µM | > 100 µM | > 100 µM | > 100 µM | > 100 µM | > 100 µM | > 100 µM | > 100 µM | > 100 µM | –
CCO/C=N\C1=C(C#N)SC2=N/C(=C\c3ccc(OC)cc3)C(=O)N21 | > 100 µM | > 100 µM | > 100 µM | > 100 µM | > 100 µM | > 100 µM | > 100 µM | > 100 µM | – | > 100 µM | > 100 µM | > 100 µM | > 100 µM | > 100 µM | > 100 µM | > 100 µM | > 100 µM | > 100 µM | –
O=C1NC(=S)NC(=O)C1C(c1ccc(O)cc1)C1C(=O)NC(=S)NC1=O | > 100 µM | > 100 µM | > 100 µM | > 100 µM | – | – | > 100 µM | > 100 µM | > 100 µM | > 100 µM | > 100 µM | > 100 µM | > 100 µM | > 100 µM | > 100 µM | > 100 µM | > 100 µM | > 100 µM | > 100 µM
CCOC(=O)c1ccc(NCc2ccc3oc(=O)c(-c4ccccc4)nc3c2)cc1 | > 100 µM | > 100 µM | 22.6 µM | 62.6 µM | > 100 µM | > 100 µM | > 100 µM | 13.2 µM | > 100 µM | > 100 µM | > 100 µM | > 100 µM | > 100 µM | 50.8 µM | > 100 µM | 45.2 µM | > 100 µM | 52.5 µM | –
CC(C)=CCC(O)[C@](C)(O)[C@H]1[C@H](O)C[C@@]2(C)[C@@H]3CCc4cc(O)c(OC5OC(CO)C(O)C(O)C5O)cc4C3(C)C(=O)C[C@]12C (stereo partly specified) | > 100 µM | > 100 µM | > 100 µM | > 100 µM | > 100 µM | > 100 µM | > 100 µM | – | > 100 µM | > 100 µM | – | > 100 µM | > 100 µM | > 100 µM | > 100 µM | > 100 µM | > 100 µM | > 100 µM | > 100 µM
CC(=O)ONC(C(=O)C(C)(C)C)C(=O)C(C)(C)C | > 100 µM | > 100 µM | > 100 µM | > 100 µM | > 100 µM | > 100 µM | > 100 µM | > 100 µM | > 100 µM | > 100 µM | > 100 µM | > 100 µM | > 100 µM | > 100 µM | > 100 µM | > 100 µM | > 100 µM | > 100 µM | –
N#C[C@@H](c1ccccn1)c1ncccc1[N+](=O)[O-] | > 100 µM | > 100 µM | > 100 µM | > 100 µM | > 100 µM | > 100 µM | > 100 µM | – | > 100 µM | – | > 100 µM | > 100 µM | > 100 µM | > 100 µM | > 100 µM | > 100 µM | > 100 µM | > 100 µM | > 100 µM
CCOC(C)O[C@H]1C(=O)OCC1(C)C (stereo partly specified) | > 100 µM | > 100 µM | > 100 µM | > 100 µM | > 100 µM | > 100 µM | > 100 µM | > 100 µM | > 100 µM | > 100 µM | > 100 µM | > 100 µM | > 100 µM | > 100 µM | > 100 µM | > 100 µM | – | > 100 µM | –
Nc1nc(-c2ccccc2)cc(-c2ccc(OCc3ccccc3)cc2O)n1 | > 100 µM | > 100 µM | > 100 µM | > 100 µM | > 100 µM | > 100 µM | > 100 µM | – | > 100 µM | > 100 µM | > 100 µM | > 100 µM | > 100 µM | > 100 µM | > 100 µM | 35.5 µM | > 100 µM | > 100 µM | > 100 µM
CC1S/C(=N\N=C2/C(=O)Nc3ccc(Br)cc32)N(C2CCCCC2)C1=O (stereo unspecified) | 12.5 µM | 12.6 µM | > 100 µM | 33.4 µM | 22.2 µM | 45 µM | 16 µM | > 100 µM | 4.25 µM | 20.8 µM | 13.6 µM | 22.7 µM | 6.76 µM | > 100 µM | 16.8 µM | > 100 µM | 12.3 µM | 6.39 µM | –
O=C(c1cccs1)N1CCc2ccccc2C1 | > 100 µM | > 100 µM | > 100 µM | > 100 µM | > 100 µM | > 100 µM | > 100 µM | 76 µM | > 100 µM | > 100 µM | > 100 µM | > 100 µM | > 100 µM | 92.3 µM | > 100 µM | > 100 µM | > 100 µM | > 100 µM | –
CC1(C)/C(=C/N=O)N(O)C(C)(C)N1O | – | > 100 µM | > 100 µM | > 100 µM | > 100 µM | > 100 µM | > 100 µM | > 100 µM | > 100 µM | > 100 µM | > 100 µM | > 100 µM | > 100 µM | > 100 µM | > 100 µM | > 100 µM | > 100 µM | > 100 µM | –
